Molecules are shown by their SMILES. Read-outs that look alike come from different tables or passages of the source. Where only a bound is given, the exact number is not on record here.

Experimental findings from US7501430B2 (ArQule, Inc., priority 2006, dated 2009) are described below.

For this experiment, the target named is T1, mutant B-RAF (Homo sapiens, UniProt P15056, V600E).
T1 construct: purchased Upstate (Charlottesville, Va.)
The experiment in a line: RAF biochemical assay (MEK-1 phosphorylation, anti-phospho MEK1/2 detection). Particulars: for IC50: read-out: Mutant B-RAF IC50; for inhibition at 10 µM: read-out: Mutant B-RAF % inhibition. The procedure, abridged: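 Detection is by ELISA: after a 30 min room-temperature reaction, plate-captured GST-MEK-1 is probed with anti-phospho MEK1/2, then an AP-tagged secondary antibody with fluorescent Attophos read-out.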

T1 sequence (P15056 whole entry V600E): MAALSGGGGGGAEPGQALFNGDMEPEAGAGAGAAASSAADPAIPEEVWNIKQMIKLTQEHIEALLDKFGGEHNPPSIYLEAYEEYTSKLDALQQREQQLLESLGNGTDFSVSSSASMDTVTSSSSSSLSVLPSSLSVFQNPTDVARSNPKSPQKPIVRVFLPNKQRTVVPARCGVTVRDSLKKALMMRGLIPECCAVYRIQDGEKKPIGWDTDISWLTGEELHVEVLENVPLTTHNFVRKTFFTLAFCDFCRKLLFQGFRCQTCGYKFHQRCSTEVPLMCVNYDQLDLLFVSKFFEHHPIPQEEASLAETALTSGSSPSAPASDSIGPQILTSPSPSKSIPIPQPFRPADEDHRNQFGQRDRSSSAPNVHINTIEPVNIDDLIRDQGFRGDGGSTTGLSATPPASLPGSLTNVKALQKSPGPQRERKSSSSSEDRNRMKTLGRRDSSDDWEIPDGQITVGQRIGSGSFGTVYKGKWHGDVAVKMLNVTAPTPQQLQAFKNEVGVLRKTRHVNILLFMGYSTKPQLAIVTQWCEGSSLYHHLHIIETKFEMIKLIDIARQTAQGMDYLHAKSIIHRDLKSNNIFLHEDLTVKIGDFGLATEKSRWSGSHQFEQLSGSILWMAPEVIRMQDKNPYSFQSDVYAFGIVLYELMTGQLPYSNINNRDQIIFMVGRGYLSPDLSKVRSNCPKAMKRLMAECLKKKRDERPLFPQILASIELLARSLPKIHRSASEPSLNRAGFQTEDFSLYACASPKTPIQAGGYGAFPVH

By IC50 is commonly meant the point on the concentration scale where inhibition reaches its midpoint. On to `O=S(=O)(c1ccc(Cl)cc1)N1CCC[C@@H](Nc2nccc(-c3c(-c4ccc(F)cc4)nc4sccn34)n2)C1` [Example 98, N-{(3R)-1-[(4-chlorophenyl)sulfonyl]piperidin-3-yl}-4-[6(4-fluorophenyl)imidazo[2,1-b][1,3]thiazol-5-yl]pyrimidin-2-amine], for which the IC50 is 36 nM.
A word on the inhibition: it is the change of the read-out against control, counted positive when it falls. Regarding `c1cc(-c2c(-c3ccc4c(c3)OCCO4)nc3sccn23)nc(N[C@@H]2CCCNC2)n1` [Example 99, 4-[6-(2,3-dihydro-1,4-benzodioxin-6-yl)imidazo[2,1-b][1,3]thiazol-5-yl]-N-[(3R)-piperidin-3-yl]pyrimidin-2-amine], under “@ 10 uM”, the inhibition at 10 µM was 29%.
Turning to `COc1cc(-c2nc3sccn3c2-c2ccnc(N[C@@H]3CCCN(S(=O)(=O)c4ccc(Cl)cc4)C3)n2)ccc1Cl` [Example 100, 4-[6-(4-chloro-3-methoxyphenyl)imidazo[2,1-b][1,3]thiazol-5-yl]-N-{(3R)-1-[(4-chlorophenyl)sulfonyl]piper-idin-3-yl}pyrimidin-2-amine], under “@ 10 uM”, the inhibition at 10 µM turned out to be 40%.
For `O=S(=O)(c1ccc(Cl)cc1)N1CCC[C@@H](Nc2nccc(-c3c(-c4ccc(Cl)c(O)c4)nc4sccn34)n2)C1` [Example 101, 2-chloro-5-{5-[2-({(3R)-1-[(4-chlorophenyl)sulfonyl]piperidin-3-yl}amino)pyrimidin-4-yl]imidazo[2,1-b][1,3]thiazol-6-yl}phenol], the IC50 was found to be 11 nM.
Same read-out and setting: the result for `COc1ccccc1-c1nc2sccn2c1-c1ccnc(N[C@@H]2CCCNC2)n1` [Example 102, 4-[6-(2-methoxyphenyl)imidazo[2,1-b][1,3]thiazol-5-yl]-N-[(3R)-piperidin-3-yl]pyrimidin-2-amine] reads 1280 nM.
On to `COc1cccc(-c2nc3occn3c2-c2ccnc(N[C@@H]3CCCN(S(=O)(=O)c4ccc(Cl)cc4)C3)n2)c1` [Example 103, N-{(3R)-1-[(4-chlorophenyl)sulfonyl]piperidin-3-yl}-4-[6-(3-methoxyphenyl)imidazo[2,1-b][1,3]oxazol-5-yl]pyrimidin-2-amine], for which, for the setting “@ 10 uM”, the inhibition at 10 µM is 48%.
On the same count and under the same terms, the result for `COc1ccc(-c2nc3sccn3c2-c2ccnc(N[C@@H]3CCCNC3)n2)cc1` [Example 106, 4-[6-(4-methoxyphenyl)imidazo[2,1-b][1,3]thiazol-5-yl]-N-[(3R)-piperidin-3-yl]pyrimidin-2-amine] reads 27%.
In the case of `O=S(=O)(c1ccc(Cl)cc1)N1CCC[C@@H](Nc2nccc(-c3c(-c4ccccc4O)nc4sccn34)n2)C1` [Example 107, 2-{5-[2-({(3R)-1-[(4-chlorophenyl)sulfonyl]piperidin-3-yl}amino)pyrimidin-4-yl]imidazo[2,1-b][1,3]thiazol-6-yl}phenol], the IC50 came to 33 nM.
For the compound `COc1cccc(-c2nc3sccn3c2-c2ccnc(N[C@@H]3CCCN(C(=O)c4ccc(F)cc4)C3)n2)c1` [Example 108, N-[(3R)-1-(4-fluorobenzoyl)piperidin-3-yl]-4-[6-(3-methoxyphenyl)imi-dazo[2,1-b][1,3]thiazol-5-yl]pyrimidin-2-amine], the inhibition at 10 µM came out at 73%.
With `COc1cccc(-c2nc3sccn3c2-c2ccnc(N[C@@H]3CCCN(C(=O)CC(C)C)C3)n2)c1` [Example 109, 4-[6-(3-methoxyphenyl)imidazo[2,1-b][1,3]thiazol-5-yl]-N-[(3R)-1-(3-methylbutanoyl)piperidin-3-yl]pyrimidin-2-amine], the IC50 was > 3000 nM.
Still for that read-out and setting: the result for `O=S(=O)(c1ccc(Cl)cc1)N1CCC[C@@H](Nc2nccc(-c3c(-c4ccc(O)cc4)nc4sccn34)n2)C1` [Example 110, 4-{5-[2-({(3R)-1-[(4-chlorophenyl)sulfonyl]piperidin-3-yl}amino)pyrimidin-4-yl]imidazo[2,1-b][1,3]thiazol-6-yl}phenol] reads > 5000 nM.
The same measure, in the same setting: to `N#Cc1ccc(S(=O)(=O)N2CCC[C@@H](Nc3nccc(-c4c(-c5cccc(O)c5)nc5sccn45)n3)C2)cc1` [Example 111, 4-{[(3R)-3-({4-[6-(3-hydroxyphenyl)imidazo[2,1-b][1,3]thiazol-5-yl]pyrimidin-2-yl}amino)piperidin-1-yl]sulfonyl}benzonitrile] belongs 28 nM; to `O=C(c1ccc(F)cc1)N1CCC[C@@H](Nc2nccc(-c3c(-c4cccc(O)c4)nc4sccn34)n2)C1` [Example 113, 3-[5-(2-{[(3R)-1-(4-fluorobenzoyl)piperidin-3-yl]amino}pyrimidin-4-yl)imidazo[2,1-b][1,3]thiazol-6-yl}phenol], 3840 nM.
Regarding `O=S(=O)(c1ccc(Cl)cc1)N1CCC[C@@H](Nc2nccc(-c3c(-c4ccc(F)c(F)c4)nc4sccn34)n2)C1` [Example 114, N-{(3R)-1-[(4-chlorophenyl)sulfonyl]piperidin-3-yl}-4-[6-(3,4-difluorophenyl)imidazo[2,1-b][1,3]thiazol-5-yl]pyrimidin-2-amine], where the note is “@ 3 uM”, at 3 µM the inhibition was 48%.
As for `COc1cccc(-c2nc3occn3c2-c2ccnc(N[C@@H]3CCCNC3)n2)c1` [Example 115, 4-[6-(3-methoxyphenyl)imidazo[2,1-b][1,3]oxazol-5-yl]-N-[(3R)-piperidin-3-yl]pyrimidin-2-amine], the IC50 is > 10000 nM.
For the compound `CC(C)CC(=O)N1CCC[C@@H](Nc2nccc(-c3c(-c4cccc(O)c4)nc4sccn34)n2)C1` [Example 116, 3-[5-(2-{[(3R)-1-(3-methylbutanoyl)piperidin-3-yl]amino}pyrimidin-4-yl)imidazo[2,1-b][1,3]thiazol-6-yl]phenol], the inhibition at 10 µM (@ 10 uM) came out at 52%.
Regarding `O=C(c1ccncc1)N1CCC[C@@H](Nc2nccc(-c3c(-c4cccc(O)c4)nc4sccn34)n2)C1` [Example 117, 3-[5-(2-{[(3R)-1-isonicotinoylpiperidin-3-yl]amino}pyrimidin-4-yl)imidazo[2,1-b][1,3]thiazol-6-yl]phenol], the IC50 turned out to be 328 nM.
Same read-out and setting: the result for `COc1cccc(-c2nc3sccn3c2-c2ccnc(N[C@@H]3CCCN(S(=O)(=O)c4ccc(CCC(=O)O)cc4)C3)n2)c1` [Example 118, 3-(4-{[(3R)-3-({4-[6-(3-methoxyphenyl)imidazo[2,1-b][1,3]thiazol-5-yl]pyrimidin-2-yl}amino)piperidin-1-yl]sulfonyl}phenyl)propanoic acid] reads 229 nM; that for `COc1cccc(-c2nc3sccn3c2-c2ccnc(N[C@@H]3CCCN(S(=O)(=O)c4ccc(C(=O)O)cc4)C3)n2)c1` [Example 119, 4-{[(3R)-3-({4-[6-(3-methoxyphenyl)imidazo(2,1-b][1,3]thiazol-5-yl]pyrimidin-2-yl}amino)piperidin-1-yl]sulfonyl}benzoic acid], 92 nM.
In the case of `O=[N+]([O-])c1cccc(-c2nc3sccn3c2-c2ccnc(N[C@@H]3CCCN(S(=O)(=O)c4ccc(Cl)cc4)C3)n2)c1` [Example 120, N-{(3R)-1-[(4-chlorophenyl)sulfonyl]piperidin-3-yl}-4-[6-(3-nitrophenyl)imidazo[2,1-b][1,3]thiazol-5-yl]pyrimidin-2-amine], the inhibition at 10 µM (@ 10 uM) came out at 55%.
Take `Nc1cccc(-c2nc3sccn3c2-c2ccnc(N[C@@H]3CCCN(S(=O)(=O)c4ccc(Cl)cc4)C3)n2)c1` [Example 122, 4-[6-(3-aminophenyl)imidazo[2,1-b][1,3]thiazol-5-yl]-N-{(3R)-1-[(4-chlorophenyl)sulfonyl]piper-idin-3-yl}pyrimidin-2-amine]: the 50% inhibitory concentration (IC50) was determined as 429 nM.
With `CC(=O)Nc1cccc(-c2nc3sccn3c2-c2ccnc(N[C@@H]3CCCN(S(=O)(=O)c4ccc(Cl)cc4)C3)n2)c1` [Example 123, N-(3-{5-[2-({(3R)-1-[(4-chlorophenyl)sulfonyl]piperidin-3-yl}amino)pyrimidin-4-yl]imidazo[2,1-b][1,3]thiazol-6-yl}phenyl)acetamide], the IC50 is 215 nM.
Same read-out and setting: to `NCC(=O)Nc1cccc(-c2nc3sccn3c2-c2ccnc(N[C@@H]3CCCN(S(=O)(=O)c4ccc(Cl)cc4)C3)n2)c1` [Example 124, N~1~-(3-{5-[2-({(3R)-1-[(4-chlorophenyl)sulfonyl]piperidin-3-yl}amino)pyrimidin-4-yl]imidazo[2,1-b][1,3]thiazol-6-yl}phenyl)glycinamide] belongs 2960 nM.
Turning to `N#Cc1cccc(-c2nc3sccn3c2-c2ccnc(N[C@@H]3CCCNC3)n2)c1` [Example 125, 3-(5-{2-[(3R)-piperidin-3-ylamino]pyrimidin-4-yl}imidazo[2,1-b][1,3]thiazol-6-yl)benzonitrile], for the setting “@ 10 uM”, the inhibition at 10 µM was found to be 19%.
Turning to `N#Cc1cccc(-c2nc3sccn3c2-c2ccnc(N[C@@H]3CCCN(S(=O)(=O)c4ccc(Cl)cc4)C3)n2)c1` [Example 126, 3-{5-[2-({(3R)-1-[(4-chlorophenyl)sulfonyl]piperidin-3-yl}amino)pyrimidin-4-yl]imidazo[2,1-b][1,3]thiazol-6-yl}benzonitrile], the half-maximal inhibitory concentration (IC50) was 710 nM.
On the same count and under the same terms, to `O=C(O)c1ccc(-c2nc3sccn3c2-c2ccnc(N[C@@H]3CCCN(S(=O)(=O)c4ccc(Cl)cc4)C3)n2)cc1` [Example 127, 4-{5-[2-({(3R)-1-[(4-chlorophenyl)sulfonyl]piperidin-3-yl}amino)pyrimidin-4-yl]imidazo[2,1-b][1,3]thiazol-6-yl}benzoic acid] belongs > 3000 nM.
As for `CCOC(=O)c1ccc(-c2nc3sccn3c2-c2ccnc(N[C@@H]3CCCNC3)n2)cc1OCC` [Example 128, ethyl 2-ethoxy-4-(5-{2-[(3R)-piperidin-3-ylamino]pyrimidin-4-yl}imidazo[2,1-b][1,3]thiazol-6-yl)benzoate], the inhibition at 10 µM (@ 10 uM) turned out to be 24%.
Take `N#Cc1cccc(-c2nc3sccn3c2-c2ccnc(N[C@@H]3CCCN(S(=O)(=O)c4ccc(C(=O)O)cc4)C3)n2)c1` [Example 129]: the 50% inhibitory concentration (IC50) was > 3000 nM.
Still for that read-out and setting: to `CCOC(=O)c1ccc(-c2nc3sccn3c2-c2ccnc(N[C@@H]3CCCN(S(=O)(=O)c4ccc(Cl)cc4)C3)n2)cc1OCC` [Example 130, ethyl 4-{5-[2-({(3R)-1-[(4-chlorophenyl)sulfonyl]piperidin-3-yl}amino)pyrimidin-4-yl]imidazo[2,1-b][1,3]thiazol-6-yl}-2-ethoxybenzoate] belongs 1090 nM.
